Reference: patent US20230227426A1 (Akebia Therapeutics, Inc., priority 2020, published 2023)
pIC50: −log10 of the molar value.

What was measured:
Type in all cases: biochemical
[1] = molecular target: T1, full-length human PHD2 (Homo sapiens, UniProt Q9GZT9); test: TR-FRET assay for PHD enzymes, PHD2; conditions: read-out: PHD2 IC5 0
T1 construct: The PHD2 construct contained amino acids 1 to 426 of PHD2; His tag (N, cleaved yes); TEV protease cleavage site (N, cleaved yes); host or cells: Sf9 insect cells (baculovirus)
Procedure: (§1) The resulting proximity of the donor fluorophore complex, monoclonal antibody anti-6His-Terbium (Tb)-cryptate Gold, bound to the His-tagged VHL protein, EloB, EloC complex (His-VBC) and the acceptor fluorophore, SA-D2 complex, bound to HIF-1α-hydroxyproline results in a fluorescence resonance energy transfer signal that can be detected and quantified
(§2) For this, 5 μL PHD inhibitor compound was serially diluted with dilution buffer (50 mM HEPES [4-(2-hydroxyethyl)-1-piperazineethanesulfonic acid] pH 7.5, 50 mM sodium chloride [NaCl], 0.01% Tween-20, 0.01% purified bovine serum albumin [BSA]) and mixed with 5 μL PHD enzyme mix prepared as a 4× concentrate in the dilution buffer containing PHD enzyme (60 nM PHD1, 20 nM PHD2, 140 nM PHD3), 40 μM ferrous ammonium sulfate (FAS), 4 mM sodium (Na) ascorbate.
(§3) The IC50 values (mean, standard deviation, standard error of the mean, geometric mean and 95% confidence interval) were determined using a four-parameter curve-fit using GraphPad Prism 7.0 (GraphPad, La Jolla, Calif., USA) and represent the compound concentration plotted against the calculated ratio of 665 nm and 615 nm.

[2] = molecular target: T2, full-length human PHD1 (Homo sapiens, UniProt Q96KS0); test: TR-FRET assay for PHD enzymes, PHD1
T2 construct: FLAG (N); purchased Active Motif (Carlsbad, Calif., USA) 81064; host or cells: baculovirus expression system
Excerpt: as §1
Recombinant human PHD1 protein (catalog #81064, Lot #24717001) was purchased from Active Motif (Carlsbad, Calif., USA). PHD1 was expressed in a baculovirus expression system as the full-length protein (NCBI accession number NP_542770.2) with an N-terminal FLAG tag (molecular weight 44.9 kDa). Purity (>90%) was assessed by SDS-PAGE.
as §2, §3

[3] = molecular target: T3, full-length human PHD3 (Homo sapiens, UniProt Q9H6Z9); test: TR-FRET assay for PHD enzymes, PHD3
T3 construct: 6-His (N); purchased Active Motif (Carlsbad, Calif., USA) 81033; host or cells: E. coli
Excerpt: as §1
Recombinant human PHD3 protein (molecular weight 31.1 kDa) was purchased from Active Motif (Carlsbad, Calif., USA). It was expressed in E. coli as the full-length protein (NCBI accession number NP_071356.1) with an N-terminal 6-His tag (catalog #81033, Lot #24417001).
as §2, §3

T1 sequence (Q9GZT9 whole entry, the tested form may be a part): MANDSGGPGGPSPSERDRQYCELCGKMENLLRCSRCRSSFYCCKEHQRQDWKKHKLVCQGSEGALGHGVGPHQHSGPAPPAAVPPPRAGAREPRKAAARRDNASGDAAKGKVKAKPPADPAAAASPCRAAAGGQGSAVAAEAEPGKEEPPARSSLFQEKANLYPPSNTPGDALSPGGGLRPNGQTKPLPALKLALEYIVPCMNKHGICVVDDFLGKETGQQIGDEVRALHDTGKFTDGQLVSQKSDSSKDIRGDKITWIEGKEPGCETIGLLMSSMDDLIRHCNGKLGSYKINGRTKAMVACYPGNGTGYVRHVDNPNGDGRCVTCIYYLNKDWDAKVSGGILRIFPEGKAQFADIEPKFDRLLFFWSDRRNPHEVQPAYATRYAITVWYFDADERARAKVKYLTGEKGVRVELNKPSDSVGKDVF
T2 sequence (Q96KS0 whole entry): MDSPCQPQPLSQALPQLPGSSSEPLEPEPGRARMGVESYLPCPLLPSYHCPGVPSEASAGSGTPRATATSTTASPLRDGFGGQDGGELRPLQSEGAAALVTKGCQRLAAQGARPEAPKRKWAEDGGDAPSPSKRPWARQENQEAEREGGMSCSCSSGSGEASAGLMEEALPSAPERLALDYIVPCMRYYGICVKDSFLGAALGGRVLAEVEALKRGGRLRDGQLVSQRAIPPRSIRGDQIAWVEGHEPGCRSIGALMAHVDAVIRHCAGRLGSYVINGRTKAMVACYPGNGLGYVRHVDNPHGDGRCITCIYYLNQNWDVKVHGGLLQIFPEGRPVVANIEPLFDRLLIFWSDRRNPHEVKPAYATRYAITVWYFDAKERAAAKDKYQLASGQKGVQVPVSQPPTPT
T3 sequence (Q9H6Z9 whole entry): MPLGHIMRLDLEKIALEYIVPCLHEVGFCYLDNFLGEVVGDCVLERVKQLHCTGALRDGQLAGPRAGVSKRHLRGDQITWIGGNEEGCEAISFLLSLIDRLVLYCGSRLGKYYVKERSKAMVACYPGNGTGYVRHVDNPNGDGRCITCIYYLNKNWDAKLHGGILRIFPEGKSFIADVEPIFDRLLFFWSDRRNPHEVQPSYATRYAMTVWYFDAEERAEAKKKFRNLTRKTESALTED

Compound | pIC50 [1] | pIC50 [2] | pIC50 [3]
Cc1ccc(-c2cnn(-c3ccc(C(=O)OC(C)(C)C)cn3)c2O)cc1 [Compound 1, Tert-butyl 6-(5-hydroxy-4-(p-tolyl)-1H-pyrazol-1-yl)nicotinate] | 5.00 to 6.00 | 6.00 to 7.00 | –
CC(C)(C)OC(=O)c1ccc(-n2ncc(-c3ccc(Br)cc3)c2O)nc1 [Compound 2, Tert-butyl 6-(4-(4-bromophenyl)-5-hydroxy-1H-pyrazol-1-yl)nicotinate] | ≤ 5.00 | 6.00 to 7.00 | –
O=C(O)c1ccc(-n2ncc(-c3ccc(Br)cc3)c2O)nc1 [Compound 3, 6-(4-(4-Bromophenyl)-5-hydroxy-1H-pyrazol-1-yl) nicotinic acid] | > 7.00 | > 7.00 | 6.00 to 7.00
CC(C)(C)OC(=O)c1ccc(-n2ncc(-c3ccc(Cl)cc3)c2O)nc1 [Compound 4, Tert-butyl 6-(4-(4-chlorophenyl)-5-hydroxy-1H-pyrazol-1-yl)nicotinate] | 5.00 to 6.00 | 6.00 to 7.00 | –
O=C(O)c1ccc(-n2ncc(-c3ccc(Cl)cc3)c2O)nc1 [Compound 5, 6-(4-(4-Chlorophenyl)-5-hydroxy-1H-pyrazol-1-yl)nicotinic acid] | > 7.00 | > 7.00 | 6.00 to 7.00
CC(C)(C)OC(=O)c1ccc(-n2ncc(-c3ccc(F)cc3)c2O)nc1 [Compound 6, Tert-butyl 6-(4-(4-fluorophenyl)-5-hydroxy-1H-pyrazol-1-yl)nicotinate] | 5.00 to 6.00 | > 7.00 | –
O=C(O)c1ccc(-n2ncc(-c3ccc(F)cc3)c2O)nc1 [Compound 7, 6-(4-(4-Fluorophenyl)-5-hydroxy-1H-pyrazol-1-yl)nicotinic acid] | > 7.00 | > 7.00 | 5.00 to 6.00
Cc1cc(C#N)ccc1-c1cnn(-c2ccc(C(=O)OC(C)(C)C)cn2)c1O [Compound 8, Tert-butyl 6-(4-(4-cyano-2-methylphenyl)-5-hydroxy-1H-pyrazol-1-yl)nicotinate] | > 7.00 | > 7.00 | > 7.00
Cc1nn(-c2ccc(C(=O)O)cn2)c(O)c1-c1ccc(C#N)cc1 [Compound 9, 6-(4-(4-Cyanophenyl)-5-hydroxy-3-methyl-1H-pyrazol-1-yl)nicotinic acid] | > 7.00 | > 7.00 | > 7.00
Cc1nn(-c2ccc(C(=O)OC(C)(C)C)cn2)c(O)c1-c1ccc(C#N)cc1 [Compound 10, Tert-butyl 6-(4-(4-cyanophenyl)-5-hydroxy-3-methyl-1H-pyrazol-1-yl)nicotinate] | > 7.00 | > 7.00 | ≤ 5.00
COC(=O)c1ccc(-n2nc(C)c(-c3ccc(C#N)cc3)c2O)nc1 [Compound 11, Methyl 6-(4-(4-cyanophenyl)-5-hydroxy-3-methyl-1H-pyrazol-1-yl)nicotinate] | > 7.00 | > 7.00 | 6.00 to 7.00
N#Cc1cc(F)c(-c2cnn(-c3ccc(C(=O)O)cn3)c2O)cc1F [Compound 12, 6-(4-(4-Cyano-2,5-difluorophenyl)-5-hydroxy-1H-pyrazol-1-yl)nicotinic acid] | > 7.00 | > 7.00 | 6.00 to 7.00
N#Cc1ccc(-c2cnn(-c3ccc(C(=O)O)cn3)c2O)cc1F [Compound 13, 6-(4-(4-cyano-3-fluorophenyl)-5-hydroxy-1H-pyrazol-1-yl)nicotinic acid] | > 7.00 | > 7.00 | > 7.00
N#Cc1ccc(-c2cnn(-c3ncc(C(=O)O)cc3F)c2O)cc1 [Compound 14, 6-(4-(4-cyanophenyl)-5-hydroxy-1H-pyrazol-1-yl)-5-fluoronicotinic acid] | 5.00 to 6.00 | 5.00 to 6.00 | –
Cc1nn(-c2ccc(C(=O)O)cn2)c(O)c1-c1ccc(Cl)cc1 [Compound 15] | > 7.00 | > 7.00 | –
Cc1cc(-c2cnn(-c3ccc(C(=O)O)cn3)c2O)ccc1O [Compound 16, 6-(5-hydroxy-4-(4-hydroxy-3-methylphenyl)-1H-pyrazol-1-yl)nicotinic acid] | 6.00 to 7.00 | 6.00 to 7.00 | 5.00 to 6.00
Cc1nc(-n2nc(C)c(-c3ccc(C#N)cc3)c2O)ccc1C(=O)O [Compound 19, 6-(4-(4-cyanophenyl)-5-hydroxy-3-methyl-1H-pyrazol-1-yl)-2-methylnicotinic acid] | 5.00 to 6.00 | 5.00 to 6.00 | –

Compound | pIC50 [1] | pIC50 [2] | pIC50 [3]
Cc1nn(-c2ccc(C(=O)O)cn2)c(O)c1-c1ccc(Cl)cn1 [Compound 20, 6-(4-(5-chloropyridin-2-yl)-5-hydroxy-3-methyl-1H-pyrazol-1-yl)nicotinic acid] | 6.00 to 7.00 | > 7.00 | –
O=C(O)c1ccc(-n2ncc(-c3ccc(Cl)c(O)c3)c2O)nc1 [Compound 22, 6-(4-(4-chloro-3-hydroxyphenyl)-5-hydroxy-1H-pyrazol-1-yl)nicotinic acid] | > 7.00 | > 7.00 | –
Cc1nn(-c2ccc(C(=O)O)cn2)c(O)c1-c1ccc(C#N)c(F)c1 [Compound 23, 6-(4-(4-cyano-3-fluorophenyl)-5-hydroxy-3-methyl-1H-pyrazol-1-yl)nicotinic acid] | > 7.00 | > 7.00 | –
Cc1nn(-c2ccc(C(=O)O)cn2)c(O)c1-c1ccc(C#N)cc1F [Compound 25, 6-(4-(4-cyano-2-fluorophenyl)-5-hydroxy-3-methyl-1H-pyrazol-1-yl)nicotinic acid] | > 7.00 | > 7.00 | –
Cc1nn(-c2cc(N)c(C(=O)O)cn2)c(O)c1-c1ccc(C#N)cc1 [Compound 27, 4-amino-6-(4-(4-cyanophenyl)-5-hydroxy-3-methyl-1H-pyrazol-1-yl)nicotinic acid] | > 7.00 | > 7.00 | –
Cc1cc(-c2c(C)nn(-c3ccc(C(=O)O)cn3)c2O)ccc1C#N [Compound 29, 6-(4-(4-cyano-3-methylphenyl)-5-hydroxy-3-methyl-1H-pyrazol-1-yl)nicotinic acid] | > 7.00 | > 7.00 | –
N#Cc1ccc(-c2cnn(-c3ccc(C(=O)O)cn3)c2O)c(Cl)c1 [Compound 30, 6-(4-(2-chloro-4-cyanophenyl)-5-hydroxy-1H-pyrazol-1-yl)nicotinic acid] | > 7.00 | > 7.00 | –
Cc1cc(C#N)cc(C)c1-c1cnn(-c2ccc(C(=O)O)cn2)c1O [Compound 31, 6-(4-(4-cyano-2,6-dimethylphenyl)-5-hydroxy-1H-pyrazol-1-yl)nicotinic acid] | 6.00 to 7.00 | > 7.00 | –
COc1ccc(-c2c(C)nn(-c3ccc(C(=O)O)cn3)c2O)cc1C [Compound 32, 6-(5-hydroxy-4-(4-methoxy-3-methylphenyl)-3-methyl-1H-pyrazol-1-yl)nicotinic acid] | 6.00 to 7.00 | 6.00 to 7.00 | –
CCc1cc(C#N)ccc1-c1cnn(-c2ccc(C(=O)O)cn2)c1O [Compound 33, 6-(4-(4-cyano-2-ethylphenyl)-5-hydroxy-1H-pyrazol-1-yl)nicotinic acid] | > 7.00 | > 7.00 | –
Cc1nn(-c2cnc(C(=O)O)cn2)c(O)c1-c1ccc(C#N)cc1 [Compound 34, 5-(4-(4-cyanophenyl)-5-hydroxy-3-methyl-1H-pyrazol-1-yl)pyrazine-2-carboxylic acid] | > 7.00 | > 7.00 | –
N#Cc1ccc(-c2cnn(-c3ccc(C(=O)O)cn3)c2O)c(C(F)(F)F)c1 [Compound 40, 6-(4-(4-cyano-2-(trifluoromethyl)phenyl)-5-hydroxy-1H-pyrazol-1-yl)nicotinic acid] | > 7.00 | > 7.00 | –
Cc1nn(-c2ccc(C(=O)O)cn2)c(O)c1-c1cc[n+]([O-])cc1 [Compound 41, 4-(1-(5-carboxypyridin-2-yl)-5-hydroxy-3-methyl-1H-pyrazol-4-yl)pyridine 1-oxide] | ≤ 5.00 | ≤ 5.00 | –
Cc1nn(-c2ccc(C(=O)O)cn2)c(O)c1-c1ccc(Cl)c(C#N)c1 [Compound 42, 6-(4-(4-chloro-3-cyanophenyl)-5-hydroxy-3-methyl-1H-pyrazol-1-yl)nicotinic acid] | > 7.00 | > 7.00 | –
COc1ccc(-c2cnn(-c3ccc(C(=O)O)cn3)c2O)cn1 [Compound 43, 6-(5-Hydroxy-4-(6-methoxypyridin-3-yl)-1H-pyrazol-1-yl)nicotinic acid] | > 7.00 | > 7.00 | –
Cc1nn(-c2ccc(C(=O)O)cn2)c(O)c1-c1ccc(C#N)c(Cl)c1 [Compound 44, 6-(4-(3-chloro-4-cyanophenyl)-5-hydroxy-3-methyl-1H-pyrazol-1-yl)nicotinic acid] | > 7.00 | > 7.00 | –
